CC(C)(Oc1ccc(C2CC2(Cl)Cl)cc1)C(=O)O (stereo not given)
solubility (mole fraction)
Conditions	278.15 K	283.15 K	288.15 K	293.15 K	298.15 K	303.15 K	308.15 K	313.15 K	318.15 K	323.15 K
in DMF	0.218	0.236	0.257	0.277	0.296	0.319	0.342	0.365	0.385	0.407
in ethanol	0.156	0.171	0.187	0.203	0.219	0.239	0.259	0.277	0.294	0.312
in ethylene glycol	0.0348	0.0395	0.044	0.0486	0.053	0.0592	0.0652	0.0711	0.077	0.0823
in n-propanol	0.0758	0.0854	0.0948	0.104	0.113	0.125	0.137	0.148	0.159	0.169
in water	5.95e-07	7.63e-07	9.11e-07	1.1e-06	1.31e-06	1.54e-06	1.77e-06	2.05e-06	2.33e-06	2.65e-06
